Columns and labels:
[1] = biological target: T1, pre-formed fibrils of hIAPP (Homo sapiens, UniProt P10997); test: Congo red birefringence of pre-formed hIAPP fibrils with the tested molecules; conditions: 5-fold molar excess of compound
T1 construct: hIAPP is a 37-amino acid neuroendocrine peptide hormone; purchased Peptide 2.0 (USA)
T1 sequence (P10997 34-70 limits assumed): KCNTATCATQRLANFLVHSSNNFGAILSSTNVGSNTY
Description: For efficient treatment of proteinopathies it may be advantageous to disassemble amyloid aggregates/fibrils which are usually already present at the time of diagnosis[75]–[77]. Therefore, the ability of the hybrid molecules to disrupt pre-formed fibrils of Aβ42 and hIAPP was examined. […] According to the ThT kinetic results, this time was sufficient to complete fibril formation (Fig. 2a, d). Then, various doses of the hybrid molecules were added to the pre-formed fibrils and the mixtures were incubated for additional 10 h. The process of disaggregation was monitored by ThT-binding assay, CD spectroscopy, TEM and Congo red staining (Fig. 5).

[2] = XTT assay, cytotoxicity of the hybrid molecules towards SH-SY5Y; assay type: cell-based; conditions: human, SH-SY5Y cells
Description: To this end, we first tested whether the hybrid molecules carried any cytotoxicity themselves. […] No considerable toxicity (≥95% viability) was caused by the hybrid molecules towards either cell line, even at the highest concentration of 250 µM (Fig. 8).
The SH-SY5Y and HEK-293 cell lines (2 × 10^5 cells/mL) were cultured in 96-well tissue microplates (100 µL/well) and allowed to adhere overnight at 37 °C. The conjugate molecules were dissolved in DMEM:nutrient mixture F12 (Ham’s) (1:1) (Biological Industries, Israel) at different concentrations. The negative control was prepared as medium without hybrid molecules and treated in the same manner. 100 µL of medium with or without hybrid molecules were added to each well in triplicate. Following incubation for 24 h at 37 °C, cell viability was evaluated using the 2,3-bis(2-methoxy-4-nitro-5-sulfophenyl)-2H-tetrazolium-5-carboxanilide (XTT) cell proliferation assay kit (Biological Industries, Israel) according to the manufacturer’s instructions. Briefly, 100 µL of activation reagent was added to 5 mL of XTT reagent, followed by the addition of 50 µL of activated-XTT solution to each well. After 2 h incubation at 37 °C, color intensity was measured using an ELISA microplate reader at 450 nm and 630 nm. Results are presented as mean and mean standard error. Each experiment was repeated minimum three times.

[3] = biological target: T2, pre-formed fibrils of Aβ42 (Homo sapiens, UniProt P05067); test: CD spectroscopy of pre-formed Aβ42 fibrils with the tested molecules; conditions: Aβ42 (10 µM) : molecule 1:5
T2 construct: purchased rPeptide (USA)
Description: For efficient treatment of proteinopathies it may be advantageous to disassemble amyloid aggregates/fibrils which are usually already present at the time of diagnosis[75]–[77]. […] Then, various doses of the hybrid molecules were added to the pre-formed fibrils and the mixtures were incubated for additional 10 h. The process of disaggregation was monitored by ThT-binding assay, CD spectroscopy, TEM and Congo red staining (Fig. 5).
The blank was subtracted from the acquired CD spectra. For the CD study in the presence of the tryptophan-galacosylamine molecules, the spectra of hybrid molecules were also recorded separately and subtracted from the respective sample spectra. The normalized data were plotted using Origin pro 2015 software.

T2 sequence (P05067 672-713 limits assumed): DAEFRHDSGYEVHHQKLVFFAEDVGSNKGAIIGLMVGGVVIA

In the case of `NC(Cc1c[nH]c2ccccc12)C(=O)NC(Cc1c[nH]c2ccccc12)C(=O)O` (centres unmarked) [WW], the “Congo red birefringence of pre-formed hIAPP fibrils, in words” value [1] was “unchanged”, the viability at 24 h, 0.2 µM ([2]; 0.2µM) was 98.8% and the viability at 24 h, 1 µM ([2]; 1 µM) was 100%. The viability at 24 h, 10 µM ([2]; 10 µM) was 98.4%, the viability at 24 h, 50 µM ([2]; 50 µM) was 90.9% and the viability at 24 h, 250 µM [2] was 88.4%. For the same compound, the viability at 24 h, 250 µM ([2]; SH-SY5Y, 24 h) was roughly 88%, the “Normalized CD spectra” value ([3]; wave length 190.00) was -73553.54 and the “Normalized CD spectra” value ([3]; wave length 190.50) was -15766.44. For the same compound, the “Normalized CD spectra” value ([3]; wave length 191.00) was 35958.05, the “Normalized CD spectra” value ([3]; wave length 191.50) was 81619.94 and the “Normalized CD spectra” value ([3]; wave length 192.00) was 121219.23. For the same compound, the “Normalized CD spectra” value ([3]; wave length 192.50) was 154755.92, the “Normalized CD spectra” value ([3]; wave length 193.00) was 182230.00 and the “Normalized CD spectra” value ([3]; wave length 193.50) was 203641.48. For the same compound, the “Normalized CD spectra” value ([3]; wave length 194.00) was 218990.36, the “Normalized CD spectra” value ([3]; wave length 194.50) was 228276.63 and the “Normalized CD spectra” value ([3]; wave length 195.00) was 231500.30. The “Normalized CD spectra” value ([3]; wave length 195.50) was 225800.71, the “Normalized CD spectra” value ([3]; wave length 196.00) was 212602.53 and the “Normalized CD spectra” value ([3]; wave length 196.50) was 192673.83. For the same compound, the “Normalized CD spectra” value ([3]; wave length 197.00) was 167389.33, the “Normalized CD spectra” value ([3]; wave length 197.50) was 138095.62 and the “Normalized CD spectra” value ([3]; wave length 198.00) was 105620.63. For the same compound, the “Normalized CD spectra” value ([3]; wave length 198.50) was 71268.15, the “Normalized CD spectra” value ([3]; wave length 199.00) was 34612.79 and the “Normalized CD spectra” value ([3]; wave length 199.50) was -3059.42. For the same compound, the “Normalized CD spectra” value ([3]; wave length 200.00) was -41012.41, the “Normalized CD spectra” value ([3]; wave length 200.50) was -77900.86 and the “Normalized CD spectra” value ([3]; wave length 201.00) was -113482.60. The “Normalized CD spectra” value ([3]; wave length 201.50) was -149046.90, the “Normalized CD spectra” value ([3]; wave length 202.00) was -184972.48 and the “Normalized CD spectra” value ([3]; wave length 202.50) was -219485.50. For the same compound, the “Normalized CD spectra” value ([3]; wave length 203.00) was -252839.40, the “Normalized CD spectra” value ([3]; wave length 203.50) was -284772.39 and the “Normalized CD spectra” value ([3]; wave length 204.00) was -314917.56. The “Normalized CD spectra” value ([3]; wave length 204.50) was -342821.04, the “Normalized CD spectra” value ([3]; wave length 205.00) was -369216.74 and the “Normalized CD spectra” value ([3]; wave length 205.50) was -393550.37. For the same compound, the “Normalized CD spectra” value ([3]; wave length 206.00) was -417348.83, the “Normalized CD spectra” value ([3]; wave length 206.50) was -438915.06 and the “Normalized CD spectra” value ([3]; wave length 207.00) was -457557.09. The “Normalized CD spectra” value ([3]; wave length 207.50) was -473195.60, the “Normalized CD spectra” value ([3]; wave length 208.00) was -486009.60 and the “Normalized CD spectra” value ([3]; wave length 208.50) was -496658.21. For the same compound, the “Normalized CD spectra” value ([3]; wave length 209.00) was -506978.42, the “Normalized CD spectra” value ([3]; wave length 209.50) was -515749.12 and the “Normalized CD spectra” value ([3]; wave length 210.00) was -522740.26. The “Normalized CD spectra” value ([3]; wave length 210.50) was -528398.60, the “Normalized CD spectra” value ([3]; wave length 211.00) was -534227.02 and the “Normalized CD spectra” value ([3]; wave length 211.50) was -539337.45. For the same compound, the “Normalized CD spectra” value ([3]; wave length 212.00) was -544717.07, the “Normalized CD spectra” value ([3]; wave length 212.50) was -549064.94 and the “Normalized CD spectra” value ([3]; wave length 213.00) was -552893.06. The “Normalized CD spectra” value ([3]; wave length 232.00) was -158822.48, the “Normalized CD spectra” value ([3]; wave length 232.50) was -145896.86 and the “Normalized CD spectra” value ([3]; wave length 233.00) was -133288.90. The “Normalized CD spectra” value ([3]; wave length 233.50) was -121276.73, the “Normalized CD spectra” value ([3]; wave length 234.00) was -108420.01 and the “Normalized CD spectra” value ([3]; wave length 234.50) was -94402.20. The “Normalized CD spectra” value ([3]; wave length 235.00) was -80851.94, the “Normalized CD spectra” value ([3]; wave length 235.50) was -67553.80 and the “Normalized CD spectra” value ([3]; wave length 236.00) was -53046.10. The “Normalized CD spectra” value ([3]; wave length 236.50) was -38359.94, the “Normalized CD spectra” value ([3]; wave length 237.00) was -24169.94 and the “Normalized CD spectra” value ([3]; wave length 237.50) was -9295.33. For the same compound, the “Normalized CD spectra” value ([3]; wave length 238.00) was 4979.26, the “Normalized CD spectra” value ([3]; wave length 238.50) was 18805.26 and the “Normalized CD spectra” value ([3]; wave length 239.00) was 32522.94. The “Normalized CD spectra” value ([3]; wave length 239.50) was 44912.46, the “Normalized CD spectra” value ([3]; wave length 240.00) was 56635.42 and the “Normalized CD spectra” value ([3]; wave length 240.50) was 67013.51. For the same compound, the “Normalized CD spectra” value ([3]; wave length 241.00) was 74841.22, the “Normalized CD spectra” value ([3]; wave length 241.50) was 81258.78 and the “Normalized CD spectra” value ([3]; wave length 242.00) was 86276.81. For the same compound, the “Normalized CD spectra” value ([3]; wave length 242.50) was 90384.02, the “Normalized CD spectra” value ([3]; wave length 243.00) was 92798.03 and the “Normalized CD spectra” value ([3]; wave length 243.50) was 93594.35. For the same compound, the “Normalized CD spectra” value ([3]; wave length 244.00) was 93999.17, the “Normalized CD spectra” value ([3]; wave length 244.50) was 92992.13 and the “Normalized CD spectra” value ([3]; wave length 245.00) was 90422.16. The “Normalized CD spectra” value ([3]; wave length 245.50) was 86663.60, the “Normalized CD spectra” value ([3]; wave length 246.00) was 82929.71 and the “Normalized CD spectra” value ([3]; wave length 246.50) was 77838.15. The “Normalized CD spectra” value ([3]; wave length 247.00) was 72115.03, the “Normalized CD spectra” value ([3]; wave length 247.50) was 67454.01 and the “Normalized CD spectra” value ([3]; wave length 248.00) was 62170.09. For the same compound, the “Normalized CD spectra” value ([3]; wave length 248.50) was 58159.55, the “Normalized CD spectra” value ([3]; wave length 249.00) was 54507.86 and the “Normalized CD spectra” value ([3]; wave length 249.50) was 50774.14. For the same compound, the “Normalized CD spectra” value ([3]; wave length 250.00) was 48265.73, the “Normalized CD spectra” value ([3]; wave length 250.50) was 46578.32 and the “Normalized CD spectra” value ([3]; wave length 251.00) was 45531.49. For the same compound, the “Normalized CD spectra” value ([3]; wave length 251.50) was 45968.11, the “Normalized CD spectra” value ([3]; wave length 252.00) was 46977.38 and the “Normalized CD spectra” value ([3]; wave length 252.50) was 48862.26. The “Normalized CD spectra” value ([3]; wave length 253.00) was 50826.53, the “Normalized CD spectra” value ([3]; wave length 253.50) was 52698.23 and the “Normalized CD spectra” value ([3]; wave length 254.00) was 54591.66. For the same compound, the “Normalized CD spectra” value ([3]; wave length 254.50) was 55574.45, the “Normalized CD spectra” value ([3]; wave length 255.00) was 55730.02 and the “Normalized CD spectra” value ([3]; wave length 255.50) was 53034.53. The “Normalized CD spectra” value ([3]; wave length 256.00) was 49400.95, the “Normalized CD spectra” value ([3]; wave length 256.50) was 44829.26 and the “Normalized CD spectra” value ([3]; wave length 257.00) was 39319.47. For the same compound, the “Normalized CD spectra” value ([3]; wave length 257.50) was 32871.59 and the “Normalized CD spectra” value ([3]; wave length 258.00) was 25485.60.
